Results published in patent US20260001914A1, “MACROCYCLIC PEPTIDES TARGETING KRAS” (Merck Sharp & Dohme LLC, priority 2022, published 2026).
*1 amine or outer side, *2 acyl side, *3 side chain or, on linkers, in order; H or OH if unused. Where a SMILES comes first, the peptide text is derived from it. Bridges are numbered along the chain shown (N, C = ends). [ ]: non-standard residue; d: D form. The star is where a group is joined. Phe(4-guanidino) = N=C(N)Nc1ccc(C[C@H](N)C(=O)O)cc1; Ala(pyrimidin-5-yl) = N[C@@H](Cc1cncnc1)C(=O)O; X6 = O=C([C@H](Cc1cnn(C2COC2)c1)N[*:1])[*:2]; NMePhe(3-F) = CN[C@@H](Cc1cccc(F)c1)C(=O)O; NMePhe(4-F) = CN[C@@H](Cc1ccc(F)cc1)C(=O)O; X33 = O=C([C@H](Cc1ccnc(F)c1F)N[*:1])[*:2]; Ethyl(2-pyrrolidin-1-yl) = C1CCN(CC*)C1; 1Nal = N[C@@H](Cc1cccc2ccccc12)C(=O)O; Phe(2-F) = N[C@@H](Cc1ccccc1F)C(=O)O; X31 = O=C([C@H](CCC1CC1)N[*:1])[*:2]; X70 = O=C(C1CC2(C1)CN([*:1])C2)[*:2]; NMe3Pal = CN[C@@H](Cc1cccnc1)C(=O)O; X1 = O=C(C12CC(CN[*:1])(C1)C2)[*:2]; Ala(cPr) = N[C@@H](CC1CC1)C(=O)O; NMeF = CN[C@@H](Cc1ccccc1)C(=O)O; PhLac = O=C(O)[C@@H](O)Cc1ccccc1; 3Pal = N[C@@H](Cc1cccnc1)C(=O)O; 4Pal = N[C@@H](Cc1ccncc1)C(=O)O; X50 = CC(CCCC(=O)[*:2])N[*:1]; Ahp(2) = CCCCC[C@H](N)C(=O)O; Cba = N[C@@H](CC1CCC1)C(=O)O; hLeu = CC(C)CC[C@H](N)C(=O)O; αMeC = C[C@](N)(CS)C(=O)O; NMeA = CN[C@@H](C)C(=O)O; Nle = CCCC[C@H](N)C(=O)O

The compounds below were run against KRAS-G12D protein (Homo sapiens, UniProt P01116, G12D) (assay: SOS-mediated nucleotide exchange assay (BODIPY-GDP / Tb-streptavidin TR-FRET)).
Sequence of KRAS-G12D protein (P01116 1-188 isoform P01116-2 G12D): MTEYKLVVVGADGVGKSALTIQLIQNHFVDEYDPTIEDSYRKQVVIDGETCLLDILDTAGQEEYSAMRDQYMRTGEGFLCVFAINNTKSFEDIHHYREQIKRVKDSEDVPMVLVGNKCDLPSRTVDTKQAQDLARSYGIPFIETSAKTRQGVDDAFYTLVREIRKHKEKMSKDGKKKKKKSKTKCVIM
Format: biochemical
CCCC[C@@H]1NC(=O)[C@H](Cc2ccc(OCCN3CCCC3)cc2)NC(=O)[C@H](C)N(C)C(=O)[C@H](Cc2ccccc2)OC(=O)C23CC(CNC(=O)[C@H](Cc4ccccc4)N(C)C(=O)[C@H](CCCC)NC(=O)[C@H](Cc4ccccc4F)NC1=O)(C2)C3 [compound 316, cyclo(FLac-NMeA-TyrOEtPyr-Nle-Phe2F-Nle-NMeF-amBCP)] (cyclo([NMeA]Y(Ethyl(2-pyrrolidin-1-yl))[Nle][Phe(2-F)][Nle][NMeF][X1][PhLac])) showed an EC50 of 7.34 nM. Compound CCCC[C@@H]1NC(=O)[C@H](Cc2cncnc2)NC(=O)[C@H](C)N(C)C(=O)[C@H](Cc2ccccc2)OC(=O)C23CC(CNC(=O)[C@H](Cc4ccc(F)cc4)N(C)C(=O)[C@H](CCCC)NC(=O)[C@H](Cc4ccccc4F)NC1=O)(C2)C3 [compound 173, cyclo(FLac-NMeA-PyrimAla-Nle-Phe2F-Nle-NMePhe4F-amBCP)] (cyclo([NMeA][Ala(pyrimidin-5-yl)][Nle][Phe(2-F)][Nle][NMePhe(4-F)][X1][PhLac])) has an EC50 of 12.5 nM. With C[C@H]1C(=O)N[C@@H](Cc2cncnc2)C(=O)N[C@@H](CC2CC2)C(=O)N[C@@H](Cc2ccccc2F)C(=O)N[C@@H](CCC2CC2)C(=O)N(C)[C@@H](Cc2ccccc2)C(=O)NCC23CC(C2)(C3)C(=O)O[C@@H](Cc2ccccc2)C(=O)N1C [compound 114, cyclo(FLac-NMeA-PyrimAla-cPrA-Phe2F-hcPrA-NMeF-amBCP)] (cyclo([Ala(cPr)][Phe(2-F)][X31][NMeF][X1][PhLac][NMeA][Ala(pyrimidin-5-yl)])) the EC50 was 2 nM. For CCCC[C@@H]1NC(=O)[C@H](Cc2cncnc2)NC(=O)[C@H](C)N(C)C(=O)[C@H](Cc2ccccc2)OC(=O)C23CC(CNC(=O)[C@H](Cc4cccc(F)c4)N(C)C(=O)[C@H](CCCC)NC(=O)[C@H](Cc4ccccc4F)NC1=O)(C2)C3 [compound 174, cyclo(FLac-NMeA-PyrimAla-Nle-Phe2F-Nle-NMePhe3F-amBCP)] (cyclo([NMeA][Ala(pyrimidin-5-yl)][Nle][Phe(2-F)][Nle][NMePhe(3-F)][X1][PhLac])), the EC50 was 12.2 nM. Work on CCCC[C@@H]1NC(=O)[C@H](Cc2cnc(C#N)nc2)NC(=O)[C@H](C)N(C)C(=O)[C@H](Cc2ccccc2)OC(=O)C23CC(CNC(=O)[C@H](Cc4ccccc4)N(C)C(=O)[C@H](CCCC)NC(=O)[C@H](Cc4ccccc4F)NC1=O)(C2)C3 (single isomer, unassigned) [compound 314, cyclo(FLac-NMeA-AlaPyrim4CN-Nle-Phe2F-Nle-NMeF-amBCP)] yielded an EC50 of 24.8 nM. Work on CCCC[C@@H]1NC(=O)[C@H](Cc2ccncc2)NC(=O)[C@H](CCCNC(=N)N)NC(=O)[C@H](Cc2cccc3ccccc23)NC(=O)CSC[C@@](C)(C(N)=O)NC(=O)[C@H](Cc2cccnc2)N(C)C(=O)[C@H](CCCC)NC(=O)[C@H](Cc2ccc(O)cc2)NC1=O [compound 333, cyclo(INal-R-4Pal-Nle-Y-Nle-NMe3Pal-aMeCl-ClAc)] ({CH2CO}-[1Nal]R[4Pal][Nle]Y[Nle][NMe3Pal][αMeC]-NH2; thioether N-8) yielded an EC50 of 19.9 nM. CCCCC[C@@H]1NC(=O)[C@H](Cc2ccc(O)cc2)NC(=O)[C@H](CCCC)NC(=O)[C@H](Cc2ccc(O)cc2)NC(=O)[C@H](CCCNC(=N)N)NC(=O)[C@H](Cc2ccccc2)NC(=O)CSC[C@@H](C(N)=O)NC(=O)[C@H](Cc2ccccc2)N(C)C1=O [compound 12, cyclo(F-R-Y-Nle-Y-Ahp-NMeF-Cl-ClAc)] ({CH2CO}-FRY[Nle]Y[Ahp(2)][NMeF]C-NH2; thioether N-8) was tested, and the EC50 was 1190 nM. For CC(C)CC[C@@H]1NC(=O)[C@H](Cc2ccccc2F)NC(=O)[C@H](CC2CC2)NC(=O)[C@H](Cc2cnn(C3COC3)c2)NC(=O)[C@H](C)N(C)C(=O)[C@H](Cc2ccccc2)OC(=O)C23CC(CNC(=O)[C@H](Cc4cccnc4)N(C)C1=O)(C2)C3 [compound 301, cyclo(FLac-NMeA-AlaPyz1Ox-cPrA-Phe2F-hL-NMe3Pal-amBCP)] (cyclo([Ala(cPr)][Phe(2-F)][hLeu][NMe3Pal][X1][PhLac][NMeA][X6])), the EC50 was 2.17 nM. Work on CCCC[C@@H]1NC(=O)[C@H](Cc2ccc(NC(=N)N)cc2)NC(=O)[C@H](CCCNC(=N)N)NC(=O)[C@H](Cc2ccccc2)NC(=O)CCCC(C)NC(=O)[C@H](Cc2ccccc2)N(C)C(=O)[C@H](CCCC)NC(=O)[C@H](Cc2ccc(OC)cc2)NC1=O (stereo partly drawn) [compound 93, cyclo(F-R-Phe4Gn-Nle-TyrOMe-Nle-NMeF-SamHex)] (cyclo(FR[Phe(4-guanidino)][Nle]Y(Me)[Nle][NMeF][X50])) yielded an EC50 of 142 nM. For CCCC[C@@H]1NC(=O)[C@H](Cc2ccc(OC)cc2)NC(=O)[C@H](CC2CCC2)NC(=O)[C@H](Cc2cccnc2)NC(=O)[C@H](CCCNC(=N)N)NC(=O)[C@H](Cc2ccccc2)NC(=O)C2CC3(C2)CN(C3)C(=O)[C@H](Cc2ccccc2)N(C)C1=O [compound 102, cyclo(F-R-3Pal-cBuA-TyrOMe-Nlc-NMeF-spiro44)] (cyclo(FR[3Pal][Cba]Y(Me)[Nle][NMeF][X70])), the EC50 was 7340 nM. In the case of CCCC[C@@H]1NC(=O)[C@H](Cc2cncnc2)NC(=O)[C@H](CCCn2ccnc2)N(C)C(=O)[C@H](Cc2ccccc2)OC(=O)C23CC(CNC(=O)[C@H](Cc4ccccc4)N(C)C(=O)[C@H](CCCC)NC(=O)[C@H](Cc4ccccc4F)NC1=O)(C2)C3 (single isomer, unassigned) [compound 223, cyclo(FLac-NMeNvalmid-PyrimAla-Nle-Phe2F-Nle-NMeF-amBCP)], the EC50 is reported as 25.3 nM. In the case of CCCCC[C@@H]1NC(=O)[C@H](Cc2ccc(OC)cc2)NC(=O)[C@H](CC2CCC2)NC(=O)[C@H](Cc2ccc(N3CCC[C@@H]3CN)cc2)NC(=O)[C@H](CCCNC(=N)N)NC(=O)[C@H](Cc2ccccc2)NC(=O)CSC[C@@](C)(C(N)=O)NC(=O)[C@H](Cc2ccccc2)N(C)C1=O [compound 391, cyclo(F-R~Phe4RamPyrr-cBuA-TyrOMe-Abp-NMeF-aMeCl-ClAc)], the EC50 is reported as 6.78 nM. CC(C)CC[C@@H]1NC(=O)[C@H](Cc2ccnc(F)c2F)NC(=O)[C@H](CC2CC2)NC(=O)[C@H](Cc2cncnc2)NC(=O)[C@H](C)N(C)C(=O)[C@H](Cc2ccccc2)OC(=O)C23CC(CNC(=O)[C@H](Cc4ccccc4)N(C)C1=O)(C2)C3 [compound 293, cyclo(FLac-NMeA-PyrimAla-cPrA-4Pal23F2-hL-NMeF-amBCP)] (cyclo([Ala(cPr)][X33][hLeu][NMeF][X1][PhLac][NMeA][Ala(pyrimidin-5-yl)])) showed an EC50 of 259 nM. CCCCC[C@@H]1NC(=O)[C@H](Cc2ccc(OC)cc2)NC(=O)[C@H](CC2CCC2)NC(=O)[C@H](Cc2ccn(C)n2)NC(=O)[C@H](CCCNC(=N)N)NC(=O)[C@H](Cc2ccccc2)NC(=O)CSC[C@@](C)(C(N)=O)NC(=O)[C@H](Cc2ccccc2)N(C)C1=O [compound 362, cyclo(F-R-MePyzAla-cBuA-TyrOMe-Ahp-NMeF-aMeCl-ClAc)] showed an EC50 of 1810 nM. Compound CCCC[C@@H]1NC(=O)[C@H](Cc2ccc(NC(=N)N)cc2)NC(=O)[C@H](CCCNC(=N)N)NC(=O)[C@H](Cc2cccc3ccccc23)NC(=O)CSC[C@H](C(=O)O)NC(=O)[C@H](Cc2ccccc2)N(C)C(=O)[C@H](CCCC)NC(=O)[C@H](Cc2ccc(O)cc2)NC1=O [compound 141, cyclo(INal-R-Phe4Gn-Nle-Y-Nle-NMeF-dC-ClAc)] ({CH2CO}-[1Nal]R[Phe(4-guanidino)][Nle]Y[Nle][NMeF][dC]-OH; thioether N-8) has an EC50 of 16.8 nM.
